We go through twelve compounds from PubChem BioAssay (NCI).

Test systems include HOP-92 NSCLC; LOX IMVI melanoma; MCF7 breast; NCI-H226 lung; NCI-H460 lung; SF-268 CNS; U251 CNS; A498 renal; CCRF-CEM leukemia; RPMI-8226 leukemia.
Common to all, as to test: growth of human tumour cells (NCI), 48 h

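Cultured in 96-well plates, cells were exposed to test compound for 48 hours across five concentrations. Here, GI50 denotes the concentration required for 50% inhibition of growth. Definition used: TGI = concentration required for complete inhibition of growth.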

Take `CN(C)CCCC1(c2ccc(F)cc2)OCc2cc(-c3csc4ccccc34)ccc21` (configuration not stated): the GI50 was 1.4 µM in the assay with HOP-92 NSCLC; 1.65 µM in the assay with LOX IMVI melanoma; 1.67 µM in the assay on MCF7 breast; 1.8 µM in the assay on NCI-H226 lung; 1.6 µM with NCI-H460 lung; 1.64 µM in the assay on SF-268 CNS. In addition, in the assay on U251 CNS, the GI50 is 1.69 µM. Moreover, the TGI turned out to be 2.95 µM with HOP-92 NSCLC; 3.16 µM with LOX IMVI melanoma; 3.27 µM in the assay with MCF7 breast; 3.52 µM in the assay on NCI-H226 lung; 3.18 µM with NCI-H460 lung; 3.19 µM with SF-268 CNS. In addition, the TGI in the assay on U251 CNS was 3.39 µM.
For `CCCCCNC(=O)CCCCCCCCCCCNC(=O)CCCCCCCCCCN1C=CC(=CC=C2C=CC(=O)C=C2)C=C1`, the TGI in the assay on A498 renal was above 100 µM; in the assay on CCRF-CEM leukemia it was above 100 µM; with HOP-92 NSCLC it was 55.1 µM; in the assay with LOX IMVI melanoma it was above 100 µM; with NCI-H226 lung, above 100 µM; with NCI-H460 lung it was above 100 µM. Further, the TGI in the assay on RPMI-8226 leukemia, with SF-268 CNS and in the assay with U251 CNS was above 100 µM each time.
Turning to `O=[N+]([O-])c1ccc(/C=C(/c2ccc([N+](=O)[O-])o2)S(=O)(=O)c2ccccc2)cc1`, the TGI is above 100 µM with HOP-92 NSCLC; above 100 µM in the assay with MCF7 breast; 75 µM in the assay with NCI-H226 lung; above 100 µM with NCI-H460 lung; 31.4 µM with RPMI-8226 leukemia; above 100 µM in the assay on SF-268 CNS. In the assay with U251 CNS, the TGI is above 100 µM.
For the compound `COc1ccc(C(C)Nc2cc(OC)c(OC)c(OC)c2)cc1` (configuration not stated), the TGI is above 100 µM in the assay with A498 renal; above 100 µM with CCRF-CEM leukemia; above 100 µM with HOP-92 NSCLC; above 92.6 µM with LOX IMVI melanoma; above 100 µM in the assay with NCI-H226 lung; above 25.5 µM in the assay with NCI-H460 lung. For the same compound, the TGI was above 100 µM in the assay with RPMI-8226 leukemia, 9.59 µM in the assay with SF-268 CNS and 10 µM in the assay on U251 CNS.
As for `COC(=O)C1CC(=O)O[C@H]1c1ccc(OC)c(OC)c1` (some centres not stated), the TGI in the assay with A498 renal, in the assay on CCRF-CEM leukemia, in the assay with HOP-92 NSCLC, in the assay with LOX IMVI melanoma, in the assay on NCI-H226 lung and in the assay on NCI-H460 lung was above 100 µM in each case. The TGI with RPMI-8226 leukemia, in the assay on SF-268 CNS and in the assay with U251 CNS was above 100 µM in each case.
For the compound `COC1=CC(=O)C(O)=C(CC2(C)C(C)CCC3(C)C2CCCC3(C)C)C1=O` (configuration not stated), the TGI in the assay on A498 renal is 22.1 µM; in the assay on CCRF-CEM leukemia, 11.5 µM; in the assay with HOP-92 NSCLC, 7.63 µM; in the assay with LOX IMVI melanoma, 23.2 µM; in the assay with NCI-H226 lung, 9.91 µM; in the assay with NCI-H460 lung, 10.6 µM. Further, the TGI in the assay on RPMI-8226 leukemia came out at 90.1 µM; in the assay on SF-268 CNS, 25.4 µM; in the assay on U251 CNS, 13.8 µM.
Turning to `Nc1ccccc1C(=O)/C=C/c1ccccc1O`, the TGI was above 100 µM in the assay on A498 renal; above 100 µM with CCRF-CEM leukemia; 81.6 µM with HOP-92 NSCLC; above 100 µM in the assay on LOX IMVI melanoma; above 100 µM with NCI-H226 lung; above 100 µM with NCI-H460 lung. In addition, the TGI in the assay with RPMI-8226 leukemia was 78.4 µM; with SF-268 CNS, above 100 µM; in the assay with U251 CNS, above 100 µM.
`COC(=O)N/N=C(\C)c1sc(-c2nc(C)c(/C(C)=N/NC(=O)OC)s2)nc1C`: the TGI in the assay with A498 renal, in the assay on CCRF-CEM leukemia, in the assay with HOP-92 NSCLC, in the assay with LOX IMVI melanoma, in the assay with NCI-H226 lung and in the assay with NCI-H460 lung was above 100 µM each time. Besides, the TGI with RPMI-8226 leukemia, in the assay with SF-268 CNS and with U251 CNS was above 100 µM in each case.
In the case of `O=C(O)c1cn(C2CC2)c2cc(N3CCN(C(=O)N(c4ccccc4)c4nc(-c5ccccc5)cs4)CC3)c(F)cc2c1=O`, the GI50 was 0.028 µM in the assay with A498 renal; 0.276 µM in the assay on CCRF-CEM leukemia; 0.241 µM in the assay with HOP-92 NSCLC; 0.358 µM in the assay with MCF7 breast; 0.296 µM with NCI-H460 lung; 0.389 µM with SF-268 CNS. The GI50 in the assay with U251 CNS was 0.381 µM. The TGI was 0.688 µM in the assay on A498 renal; above 100 µM in the assay with CCRF-CEM leukemia; 0.948 µM in the assay with HOP-92 NSCLC; above 100 µM with MCF7 breast; above 100 µM in the assay on NCI-H460 lung; above 100 µM in the assay with SF-268 CNS. The compound further showed a TGI in the assay on U251 CNS above 100 µM.
With `N#C[Se]CCN1C(=O)c2ccccc2C1=O`, the GI50 in the assay on CCRF-CEM leukemia was 0.934 µM; with HOP-92 NSCLC it was 1.37 µM; in the assay with LOX IMVI melanoma it was 1.8 µM; in the assay with MCF7 breast, 2.24 µM; in the assay with NCI-H226 lung, 1.6 µM; in the assay with NCI-H460 lung, 2.25 µM. In addition, the GI50 with RPMI-8226 leukemia is 3.35 µM; with SF-268 CNS it was 1.83 µM; in the assay with U251 CNS, 2.63 µM. Further, the TGI in the assay with CCRF-CEM leukemia was found to be 30.3 µM; with HOP-92 NSCLC it was 3.12 µM; in the assay with LOX IMVI melanoma, 4.15 µM; with MCF7 breast, 13.1 µM; in the assay on NCI-H226 lung, 3.82 µM; in the assay on NCI-H460 lung, 11.4 µM. Also, the TGI with RPMI-8226 leukemia turned out to be 18.5 µM; in the assay on SF-268 CNS it was 3.84 µM; with U251 CNS it was 8.71 µM.
As for `C=CCN(CC=C)Cc1c[nH]c2ccccc12`, the GI50 in the assay with CCRF-CEM leukemia is 56.9 µM; in the assay with HOP-92 NSCLC, above 100 µM; with LOX IMVI melanoma, 27.4 µM; in the assay with MCF7 breast, 3 µM; with NCI-H460 lung, 21.8 µM; with RPMI-8226 leukemia it was 17.8 µM. For the same compound, the figures for the GI50 in the assay with SF-268 CNS and with U251 CNS were 11.5 µM and 13.2 µM, respectively. Further, the TGI is above 100 µM with CCRF-CEM leukemia; above 100 µM in the assay on HOP-92 NSCLC; above 100 µM in the assay with LOX IMVI melanoma; 19.7 µM in the assay on MCF7 breast; 62.3 µM in the assay with NCI-H460 lung; above 100 µM in the assay with RPMI-8226 leukemia. For the same compound, the TGI turned out to be 32.5 µM with SF-268 CNS and 31.2 µM in the assay on U251 CNS.
As for `O=c1c2cc(Br)ccc2nc(CNc2ccccc2)n1-c1ccccc1`, the TGI turned out to be 93.4 µM in the assay with A498 renal; 13.7 µM in the assay on CCRF-CEM leukemia; 37.8 µM with HOP-92 NSCLC; 19.6 µM in the assay with LOX IMVI melanoma; 43.9 µM in the assay on NCI-H226 lung; 45.4 µM with NCI-H460 lung. The TGI with RPMI-8226 leukemia is above 54.9 µM; with SF-268 CNS it was above 54.7 µM; with U251 CNS, 31.8 µM.
